Experimental data from patent publication US20240197604A1, “COMPOUNDS WITH COOLING SENSATION PROPERTIES” (Givaudan SA, priority 2021, published 2024).

Columns and labels:
[1] = Sensory evaluation in model dentifrice by a panel of trained flavourists; assay type: in vivo, human; conditions: 10 ppm in unflavored model dentifrice, brushing with 1 g for 60 seconds, no rinsing
Method: The oxalate of 2-(methylthio)-1-(2-(5-(p-tolyl)imidazol-2-yl)piperidin-1-yl)propan-1-one (prepared according to Example 1d) was dissolved at a concentration of 1 wt-% in propylene glycol. This solution was then dispersed in an appropriate quantity to obtain the desired final concentration of 10 ppm (parts per million) of the test compound into a model, unflavored dentifrice, the formula of which is given below (ingredients obtained from the suppliers respectively indicated in parenthesis).
A panel of trained flavourists evaluated the dentifrice containing the oxalate, by brushing their teeth with 1 g of the dentifrice using a toothbrush for 60 seconds, followed by spitting, without rinsing the mouth afterwards for the duration of the evaluation. The flavourists evaluated and recorded the cooling performance as well as other sensorial and organoleptic attributes at different time-points over a period of 90 minutes. The following tasting notes were recorded: Good coolant. Clean, with a pleasant, mild tingling effect. Active in all areas of the mouth.

[2] = target: T1, hTRPM8 (Homo sapiens, UniProt Q7Z2W7); assay: Assay on TRPM8 modulators: calcium imaging (Fluo-4, Flexstation 3) in HEK293 cell line stably expressing hTRPM8; assay type: cell-based; conditions: HEK293 cells stably expressing hTRPM8; Fluo-4 calcium imaging; sigmoidal dose-response fit; read-out: EC50 value (TRPM8 agonist, calcium influx)
T1 construct: expressed in transfected cells
T1 sequence (Q7Z2W7 whole entry): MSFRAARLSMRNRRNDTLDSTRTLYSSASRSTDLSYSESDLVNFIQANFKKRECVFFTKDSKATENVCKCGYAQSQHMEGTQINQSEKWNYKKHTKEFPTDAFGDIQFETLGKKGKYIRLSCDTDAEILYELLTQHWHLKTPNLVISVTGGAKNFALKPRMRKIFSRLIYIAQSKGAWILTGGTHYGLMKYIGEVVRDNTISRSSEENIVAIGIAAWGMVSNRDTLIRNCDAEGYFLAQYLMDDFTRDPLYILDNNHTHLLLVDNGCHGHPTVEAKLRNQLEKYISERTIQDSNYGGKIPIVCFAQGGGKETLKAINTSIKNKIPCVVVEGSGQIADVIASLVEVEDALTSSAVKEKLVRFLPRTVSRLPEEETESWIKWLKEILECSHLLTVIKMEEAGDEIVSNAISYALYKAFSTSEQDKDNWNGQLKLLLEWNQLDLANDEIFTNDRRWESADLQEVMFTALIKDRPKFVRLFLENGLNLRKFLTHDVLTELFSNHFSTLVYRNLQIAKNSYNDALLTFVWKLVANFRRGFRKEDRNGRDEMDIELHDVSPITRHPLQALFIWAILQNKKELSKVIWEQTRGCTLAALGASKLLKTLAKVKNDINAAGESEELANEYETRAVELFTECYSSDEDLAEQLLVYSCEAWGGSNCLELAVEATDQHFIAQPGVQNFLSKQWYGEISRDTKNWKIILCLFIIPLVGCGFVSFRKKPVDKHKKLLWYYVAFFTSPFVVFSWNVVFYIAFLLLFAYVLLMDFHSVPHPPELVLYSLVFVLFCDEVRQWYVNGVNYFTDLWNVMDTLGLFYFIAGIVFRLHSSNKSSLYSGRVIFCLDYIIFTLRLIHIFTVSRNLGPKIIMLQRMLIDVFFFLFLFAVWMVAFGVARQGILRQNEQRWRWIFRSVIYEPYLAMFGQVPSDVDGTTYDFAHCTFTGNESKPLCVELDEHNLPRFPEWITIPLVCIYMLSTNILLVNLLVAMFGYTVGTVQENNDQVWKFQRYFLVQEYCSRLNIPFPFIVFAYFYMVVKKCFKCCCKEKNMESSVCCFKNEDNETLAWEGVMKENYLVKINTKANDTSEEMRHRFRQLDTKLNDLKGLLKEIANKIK
Method: A HEK293 cell line stably expressing hTRPM8 was generated according to Klein et al., (Chem. Senses 36: 649-658, 2011) and receptor activation was monitored by calcium imaging in a Flexstation. For Ca-imaging assays of TRPM8 channel activation, cells were seeded on day 0 at a density of 12000 cells per well in Dulbecco's modified Eagle medium (DMEM) containing 9% foetal bovine serum in black, clear bottom 96-well plates that had been coated with 0.001% polyethyleneimine (molecular weight=60 000, Acros Organics). On day 2, agonists were evaluated via calcium imaging using Fluo-4. Briefly, growth medium was discarded, and the cells were incubated in the dark for 1 h at 37° C. in 50 μL loading buffer consisting of 2.7 μM Fluo-4 AM (Invitrogen) and […] probenecid (Sigma-Aldrich) in DMEM (without serum). […] The cells were then washed five times with 100 μL assay buffer and then calcium influx to serial dilutions of 2-(1-(2-(methylthio)propanoyl)piperidin-2-yl)-5-(p-tolyl)-1H-imidazolium carboxyformate was measured in a Flexstation 3 (Molecular Devices). […] Fluorescence was continuously monitored for 15 seconds prior to ligand addition and for 105 seconds after ligand addition, for a total of 120 seconds. Maximal receptor activation in relation to solvent control and relative to 31.6 μM menthol is determined. […]

## CSC(C)C(=O)N1CCCCC1c1ncc(-c2ccc(C)cc2)[nH]1.O=C(O)C(=O)O (stereo not shown) [Example 1d, 2-(1-(2-(methylthio)propanoyl)piperidin-2-yl)-5-(p-tolyl)-1H-imidazolium carboxyformate]
[1]
  onset of cooling effect (tasting notes): Fast acting (upfront cooling) with effect perceived already during brushing
[1]; evaluated over 90 minutes
  cooling performance (tasting notes): Good coolant
  longevity of cooling effect (tasting notes): Strong cooling peak with long-lasting effect up to one hour
[2]
  EC50: < 0.01 µM
